Data from paper PMC10570359, “Dietary supplementation of cystinotic mice by lysine inhibits the megalin pathway and decreases kidney cystine content” (Scientific Reports, 2023).

Key:
porcine megalin = porcine megalin (Sus scrofa, UniProt C0HL13); assay: Surface plasmon resonance: competition for TC:B12 binding to chip-immobilized megalin; conditions: for IC50: IC50 for TC:B12/megalin interaction (mM; 95%CI), 10 µg/ml TC:B12 in 0 to 100 mM amino-acid, Biacore; for SPR signal of amino-acid alone on megalin chip: chips exposed to increasing concentrations of amino-acid, no analyte
Experimental: To directly address whether supra-physiological concentrations of dibasic amino-acids (dAAs) can interfere with binding of protein ligands to megalin, we used surface plasmon resonance. Sensor chips were derivatized with porcine megalin at high density. […] After flushing, chips were incubated with 10 µg/ml of three analytes: the megalin chaperone, RAP (receptor-associated protein), as positive control (not shown), or two physiological megalin ligands: transcobalamine:cobalamine complexes (TC:B12; Fig. 1; sensorgrams shown at Supplemental Fig. 1a) or lysozyme (Supplemental Fig. 1b), diluted in 0 to 100 mM of the same amino-acids in buffer. […] The supraphysiological range for effective competition in vitro defined the necessary increment in urinary concentration from dietary supplementation for significant competition in vivo.
Figure 1 Acellular assay: direct competition for transcobalamine:cobalamine binding to megalin immobilized on Biacore sensor chips. Signals of sensorgrams (shown in Supplemental Fig. 1) were normalized to control signal without AA supplementation, taken as the unity, and are means ± SEM of at least four independent technical duplicate values at each of the indicated amino-acid-concentrations.
Surface plasmon resonance (SPR) analysis of the binding to chip-immobilized megalin of receptor-associated protein (RAP), transcobalamine:cobalamine complex (TC:B12) and lysozyme was carried out using a Biacore T200 instrument (Uppsala, Sweden). The sensor chips (type CM5) were activated with a 1:1 mixture of 0.2 M N-ethyl-N′-(3-dimethylaminopropyl) carbodiimide and 0.05 M N-hydroxysuccinimide in H2O. Porcine megalin[49] was immobilized on the chip in 10 mM sodium acetate, pH 4.0, and the remaining binding sites were blocked with 1 M ethanolamine, pH 8.5. The SPR signal generated from immobilized megalin were obtained with a density of 4.5 fmol protein/mm^2.
Human RAP was produced as recombinant protein in E. coli[50] and used to validate the sensor chip. TC was purified and complexed with B12 as described (TC/B12)[50],[51]. Human recombinant lysozyme was purchased from Sigma-Aldrich (expressed in rice, # L1667). Sensorgrams were generated using each of these three ligands at 10 µg/ml in a running buffer consisting of 10 mM Hepes, 150 mM NaCl, 4 mM CaCl2 and 0.05% Tween 20, pH 7.4. The flow cells were regenerated with 1 M ethanolamine pH 9.0. Analyte testing was performed as a dual injection starting with running buffer supplemented with the defined concentrations of amino acids followed by injection of analyte in the same solution. The pH of all buffers was adjusted after amino acids addition. All binding experiments were made as at least independent triplicate of technical duplicates and data were analyzed using the Biacore T200 evaluation software version 3.1.

megalin pathway [1] = assay: LMW proteinuria (urinary CC16) in WT mice under 5x-dAA diets; type: in vivo; conditions: WT C57Bl-6 mice, 3 weeks diet, vs control diet
Experimental: In a second experiment, 5x-D-lysine was compared to regular diet.
(§1) Body weight was recorded before entering the metabolic cages. […] Creatinine clearance was normalized by mouse body weight.

[2] = Clinical urine and serum analyses in Ctns KO mice under 5x-dAA diets
Excerpt: We also attempted to further discriminate between luminal (competition for surface megalin binding) and intracellular metabolic effects (see Discussion) by comparing the effects of 5x-L-lysine to its stereoisomer, 5x-D-lysine. Unless stated otherwise, diets were initiated at 6 months-of-age, and mice were studied then euthanized at 8 months-of-age (2-months treatment). This time frame was selected for two reasons. First, in the mouse cystinosis model, this an appropriate window to evaluate the impact on PTC alterations based on changes in kidney cystine accumulation and overall function. […] Second, although primary prevention by earlier intervention (from 2-to-6 months-of-age) better mimics perinatal genetic megalin ablation, thus could be more efficient, secondary intervention (starting at 6 months-of-age), when disease becomes clinically apparent, is more relevant for further translational studies.
as §1

Ctns KO mice kidneys = assay: Kidney cystine content in Ctns KO mice; type: in vivo; conditions: for mean kidney cystine at 8 months-of-age: Ctns KO female mice, diet from 6-to-8 months-of-age; for kidney cystine as percentage of mean control diet, pooled for 8 and 12 months-of-age: 2 and 6 months of treatment
Experimental: For this pilot study, we selected tissue accumulation of cystine as a clear and measurable outcome to quantify long-term interference of dAAs with the endocytic supply of disulfide-rich plasma proteins to kidney PTCs.
Mice were euthanized by cabon dioxide (CO2) inhalation. Dissected tissues were homogenized in 10 mM N-ethylmaleimide. Protein fraction was obtained after precipitation in 10% 5-sulfosalicylic acid and centrifugation at 20,000g for 20 min at 4 °C. Protein pellet was resuspended in 100 mM NaOH and assayed by the Bio-Rad Protein Assay according to manufacturer’s instructions. Supernatant (50 μl) was mixed with 50 μL of the internal standard solution (Cystine d6) and vortexed for 5 s; then the mixture was extracted with 200 μl of acetonitrile, vortexed for at least 30 s, then centrifuged at 13,000 rpm for 9 min. Liquid chromatography and mass spectrometry analysis was performed by a UHPLC Agilent 1290 Infinity II 6470 (Agilent Technologies) equipped with an ESI-JET-STREAM source operating in the positive ion (ESI +) mode. Equipment was controlled and data were analyzed using MassHunter Workstation (Agilent Technologies). The separation column was InfinityLab Poroshell 120 HILIC 1.9 μm 100 × 2.1 mm (Agilent Technologies). Validation of the method was performed basing on the US Food and Drug Administration (FDA) guideline for industry bioanalytical method validation (FDA 2013) and European Medicines Agency (EMA) guideline (EMA 2011). The assay was validated for selectivity, specificity, linearity and limit of quantification, accuracy and precision, matrix effects and recovery, and stability.

megalin pathway [3] = assay: LMW proteinuria / albuminuria in Ctns KO mice under 5x-dAA diets
Experimental: After 24-h adaptation in metabolic cages, urine was collected during the following 24 h in presence of 0.1% sodium azide and 1x-protease inhibitors (Thermo Scientific). When in metabolic cages, mice had free access to tap water and food. Blood was collected 2 days before starting the treatments and entry into metabolic cages (baseline) and at the sacrifice to obtain serum. Body weight was recorded before entering the metabolic cages. Urine and serum analyses were performed by the veterinary laboratory Appialab Srl (Rome, Italy). Urinary levels of CC16 were measured by the Mouse Clara Cell Protein 16 kit 96 T #EKU03200 (Biomatik) according to manufacturer’s instructions. Serum levels of cystatin-C were measured by the Mouse/Rat Cystatin C Quantitative ELISA #MSCTC0 (R&D Systems). […] Creatinine clearance was normalized by mouse body weight.

[4] = Ctns KO mice at 8 months of age, 2 months of treatment, urine, mean ± SEM
[5] = Ctns KO mice at 8 months of age, 2 months of treatment, serum, mean ± SEM

porcine megalin, sequence (C0HL13 26-4652): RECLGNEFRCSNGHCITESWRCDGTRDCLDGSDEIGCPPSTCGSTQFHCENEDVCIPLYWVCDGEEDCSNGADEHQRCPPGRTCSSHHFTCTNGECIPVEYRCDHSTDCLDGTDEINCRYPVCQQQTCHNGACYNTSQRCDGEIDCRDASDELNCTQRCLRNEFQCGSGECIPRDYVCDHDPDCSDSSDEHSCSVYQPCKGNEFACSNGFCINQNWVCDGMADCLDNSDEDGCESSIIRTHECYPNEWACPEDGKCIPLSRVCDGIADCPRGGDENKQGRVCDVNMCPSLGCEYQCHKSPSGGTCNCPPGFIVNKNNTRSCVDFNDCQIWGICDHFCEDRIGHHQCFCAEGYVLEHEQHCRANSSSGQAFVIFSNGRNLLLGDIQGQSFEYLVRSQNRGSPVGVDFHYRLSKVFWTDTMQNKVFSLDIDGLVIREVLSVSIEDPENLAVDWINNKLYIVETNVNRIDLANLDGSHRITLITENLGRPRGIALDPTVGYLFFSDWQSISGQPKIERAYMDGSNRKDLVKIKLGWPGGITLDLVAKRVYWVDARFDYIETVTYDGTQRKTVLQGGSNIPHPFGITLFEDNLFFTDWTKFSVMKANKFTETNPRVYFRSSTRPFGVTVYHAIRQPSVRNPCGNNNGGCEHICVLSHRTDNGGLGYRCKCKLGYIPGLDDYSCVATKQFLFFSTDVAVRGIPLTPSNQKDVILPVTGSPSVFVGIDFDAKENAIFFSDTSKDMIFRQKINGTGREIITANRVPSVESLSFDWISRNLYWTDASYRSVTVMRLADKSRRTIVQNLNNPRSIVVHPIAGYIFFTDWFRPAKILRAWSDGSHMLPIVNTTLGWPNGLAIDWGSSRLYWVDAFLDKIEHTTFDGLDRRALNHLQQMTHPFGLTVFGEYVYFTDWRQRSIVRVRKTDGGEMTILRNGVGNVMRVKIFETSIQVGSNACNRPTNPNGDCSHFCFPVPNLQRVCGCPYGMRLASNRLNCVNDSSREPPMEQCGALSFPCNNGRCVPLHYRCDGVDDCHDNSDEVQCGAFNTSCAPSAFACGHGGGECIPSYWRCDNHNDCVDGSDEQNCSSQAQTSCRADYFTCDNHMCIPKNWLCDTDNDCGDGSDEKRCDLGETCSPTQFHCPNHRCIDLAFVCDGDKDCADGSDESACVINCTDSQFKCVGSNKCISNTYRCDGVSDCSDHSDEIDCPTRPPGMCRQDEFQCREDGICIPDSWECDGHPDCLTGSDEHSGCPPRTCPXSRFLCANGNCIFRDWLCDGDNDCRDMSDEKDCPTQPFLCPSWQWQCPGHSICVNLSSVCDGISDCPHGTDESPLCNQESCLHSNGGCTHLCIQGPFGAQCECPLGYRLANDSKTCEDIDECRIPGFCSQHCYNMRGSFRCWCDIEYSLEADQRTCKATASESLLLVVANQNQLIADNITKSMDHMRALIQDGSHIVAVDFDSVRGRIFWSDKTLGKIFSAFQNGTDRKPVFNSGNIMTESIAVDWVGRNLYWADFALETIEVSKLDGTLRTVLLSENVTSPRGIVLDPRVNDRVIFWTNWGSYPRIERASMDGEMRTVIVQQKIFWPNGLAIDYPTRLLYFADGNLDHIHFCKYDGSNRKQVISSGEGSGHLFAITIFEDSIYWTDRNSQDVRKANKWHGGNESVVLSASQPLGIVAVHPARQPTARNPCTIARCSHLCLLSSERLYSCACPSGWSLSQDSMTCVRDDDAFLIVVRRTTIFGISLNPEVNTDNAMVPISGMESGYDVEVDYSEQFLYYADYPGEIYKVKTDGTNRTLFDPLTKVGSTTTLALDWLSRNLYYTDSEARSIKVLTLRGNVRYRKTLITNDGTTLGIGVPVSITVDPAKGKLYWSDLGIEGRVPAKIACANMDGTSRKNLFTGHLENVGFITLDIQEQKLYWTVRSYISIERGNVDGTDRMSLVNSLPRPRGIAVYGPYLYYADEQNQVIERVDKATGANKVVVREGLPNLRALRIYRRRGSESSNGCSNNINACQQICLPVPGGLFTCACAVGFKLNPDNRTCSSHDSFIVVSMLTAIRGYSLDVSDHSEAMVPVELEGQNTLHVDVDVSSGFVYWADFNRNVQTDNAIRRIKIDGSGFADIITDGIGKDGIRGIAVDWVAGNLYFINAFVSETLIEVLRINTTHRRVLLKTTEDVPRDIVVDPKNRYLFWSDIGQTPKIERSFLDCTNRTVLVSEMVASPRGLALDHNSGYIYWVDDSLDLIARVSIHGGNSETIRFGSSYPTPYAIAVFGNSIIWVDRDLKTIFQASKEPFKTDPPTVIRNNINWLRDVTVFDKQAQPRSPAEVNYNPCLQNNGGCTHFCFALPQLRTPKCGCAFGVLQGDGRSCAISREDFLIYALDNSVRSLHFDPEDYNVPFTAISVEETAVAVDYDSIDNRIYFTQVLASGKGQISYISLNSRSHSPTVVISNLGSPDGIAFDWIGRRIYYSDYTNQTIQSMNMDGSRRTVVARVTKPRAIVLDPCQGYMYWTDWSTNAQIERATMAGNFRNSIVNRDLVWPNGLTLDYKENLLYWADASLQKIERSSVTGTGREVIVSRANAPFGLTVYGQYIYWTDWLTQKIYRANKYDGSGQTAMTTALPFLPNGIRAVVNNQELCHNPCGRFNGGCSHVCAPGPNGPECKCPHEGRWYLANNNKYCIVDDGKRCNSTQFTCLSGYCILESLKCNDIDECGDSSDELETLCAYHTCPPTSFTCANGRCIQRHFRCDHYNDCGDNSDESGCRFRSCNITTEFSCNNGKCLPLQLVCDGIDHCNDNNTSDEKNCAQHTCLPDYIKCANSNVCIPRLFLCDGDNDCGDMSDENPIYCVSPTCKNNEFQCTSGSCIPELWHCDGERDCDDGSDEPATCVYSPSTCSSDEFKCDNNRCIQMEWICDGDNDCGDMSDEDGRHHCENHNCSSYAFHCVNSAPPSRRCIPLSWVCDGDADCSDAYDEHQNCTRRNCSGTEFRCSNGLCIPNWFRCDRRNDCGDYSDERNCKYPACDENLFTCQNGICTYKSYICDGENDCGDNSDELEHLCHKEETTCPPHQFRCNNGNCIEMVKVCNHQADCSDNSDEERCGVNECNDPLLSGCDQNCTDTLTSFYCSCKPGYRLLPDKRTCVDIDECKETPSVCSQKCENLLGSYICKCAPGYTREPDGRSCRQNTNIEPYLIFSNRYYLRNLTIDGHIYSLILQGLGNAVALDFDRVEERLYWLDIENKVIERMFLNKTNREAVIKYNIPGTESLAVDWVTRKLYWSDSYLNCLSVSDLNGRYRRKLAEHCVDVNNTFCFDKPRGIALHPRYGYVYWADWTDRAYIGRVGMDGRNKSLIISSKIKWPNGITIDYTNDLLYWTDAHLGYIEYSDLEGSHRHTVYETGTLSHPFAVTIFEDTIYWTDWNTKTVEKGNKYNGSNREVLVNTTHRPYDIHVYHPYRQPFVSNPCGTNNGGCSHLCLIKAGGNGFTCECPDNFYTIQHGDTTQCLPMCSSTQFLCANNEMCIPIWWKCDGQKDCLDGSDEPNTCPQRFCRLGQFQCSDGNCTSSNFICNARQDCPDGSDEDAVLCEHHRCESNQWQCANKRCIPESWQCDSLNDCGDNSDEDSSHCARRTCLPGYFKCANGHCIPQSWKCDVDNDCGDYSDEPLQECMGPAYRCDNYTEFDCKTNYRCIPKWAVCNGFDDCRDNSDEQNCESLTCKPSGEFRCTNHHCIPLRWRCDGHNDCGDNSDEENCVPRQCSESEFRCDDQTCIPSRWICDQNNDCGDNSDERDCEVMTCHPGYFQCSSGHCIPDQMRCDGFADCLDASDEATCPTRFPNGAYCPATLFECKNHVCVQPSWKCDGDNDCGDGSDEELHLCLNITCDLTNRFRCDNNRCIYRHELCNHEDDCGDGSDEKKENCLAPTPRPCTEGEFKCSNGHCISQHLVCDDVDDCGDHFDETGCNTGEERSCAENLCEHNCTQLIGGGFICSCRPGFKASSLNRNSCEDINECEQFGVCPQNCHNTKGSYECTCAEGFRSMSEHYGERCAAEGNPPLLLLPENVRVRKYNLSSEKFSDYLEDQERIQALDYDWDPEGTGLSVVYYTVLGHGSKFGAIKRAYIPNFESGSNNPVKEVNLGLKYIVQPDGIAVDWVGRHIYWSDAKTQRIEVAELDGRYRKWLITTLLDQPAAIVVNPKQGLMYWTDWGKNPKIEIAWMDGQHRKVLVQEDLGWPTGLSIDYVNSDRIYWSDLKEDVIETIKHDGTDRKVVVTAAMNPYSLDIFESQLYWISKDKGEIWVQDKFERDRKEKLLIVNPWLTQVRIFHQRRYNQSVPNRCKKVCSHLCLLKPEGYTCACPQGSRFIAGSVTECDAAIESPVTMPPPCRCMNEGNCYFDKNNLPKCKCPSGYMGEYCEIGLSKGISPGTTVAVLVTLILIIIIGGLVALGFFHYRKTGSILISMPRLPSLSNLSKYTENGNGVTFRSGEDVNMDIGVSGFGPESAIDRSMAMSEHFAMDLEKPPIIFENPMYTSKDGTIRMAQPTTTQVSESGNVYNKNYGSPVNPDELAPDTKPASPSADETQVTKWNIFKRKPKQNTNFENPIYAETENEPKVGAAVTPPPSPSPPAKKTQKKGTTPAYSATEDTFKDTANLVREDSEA

## N=C(N)NCCC[C@H](N)C(=O)O [5x-L-arginine, L-arginine]
Porcine megalin
  IC50: 57 mM
  SPR signal of amino-acid alone on megalin chip: no signal was detected
Megalin pathway [1]
  increase of urinary excretion of CC16 (normalized for creatinine excretion): did not detectably increase
[2]; mouse, in vivo
  Calculated creatinine clearance: 40.7 ± 3.5 µL/min
  Serum creatinine: 0.9 ± 0.1 mg/dL
  Serum cystatin-C: 1092 ± 56.5 ng/mL
  Serum glucose: 170.9 ± 9.5 mg/dL
  Serum phosphate: 9.7 ± 0.3 mg/dL
  Serum urea: 63.6 ± 3.8 mg/dL
  Urine creatinine: 22.1 ± 2.7 mg/dL
  Urine glucose/creatinine: 25.8 ± 4.0 g/g
  Urine phosphate/creatinine: 1.9 ± 0.2 g/g
  Urine urea/creatinine: 238.2 ± 17.3 g/g
Ctns KO mice kidneys
  mean kidney cystine at 8 months-of-age: 90.0 ± 32.3 nmol hemi-cystine/mg kidney protein
Ctns KO mice kidneys; Ctns KO mice
  kidney cystine as percentage of mean control diet, pooled for 8 and 12 months-of-age: without reaching statistical significance
Megalin pathway [3]; [4]
  Urine CC16/creatinine: 3151 ± 556.1 µg/g

## NCCCC[C@H](N)C(=O)O [5x-L-lysine, L-lysine]
Porcine megalin
  IC50: 25 mM
  SPR signal of amino-acid alone on megalin chip: no signal was detected
Megalin pathway [1]
  increase of urinary excretion of CC16 (normalized for creatinine excretion): 7 fold
[2]; Ctns KO mice at 8 months of age, 2 months of treatment, mean ± SEM
  Body weight: 23.0 ± 0.9 g
[2]; [5]
  Serum creatinine: 0.8 ± 0.1 (n = 9) mg/dL
  Serum cystatin-C: 669.2 ± 33.2 ng/mL
  Serum glucose: 169.1 ± 9.3 (n = 9) mg/dL
  Serum phosphate: 10.1 ± 0.5 (n = 9) mg/dL
  Serum urea: 58.3 ± 2.6 (n = 9) mg/dL
[2]; [4]
  Daily creatinine output: 0.7 ± 0.1 mg/day
  Diuresis: 2.8 ± 0.2 mL/day
  Urine creatinine: 25.6 ± 2.5 mg/dL
  Urine glucose/creatinine: 19.0 ± 4.6 g/g
  Urine phosphate/creatinine: 2.3 ± 0.4 g/g
  Urine urea/creatinine: 173.0 ± 15.2 g/g
Ctns KO mice kidneys
  mean kidney cystine at 8 months-of-age: 83.6 ± 38.7 nmol hemi-cystine/mg kidney protein
Ctns KO mice kidneys; Ctns KO mice
  kidney cystine as percentage of mean control diet, pooled for 8 and 12 months-of-age: significantly lower than control
Ctns KO mice kidneys; Ctns KO mice, two-months treatment from 6-to-8 months of age
  cumulative decrease of kidney cystine accumulation: ~ twofold
Megalin pathway [3]; Ctns KO female mice, diet from 6-to-8 months of age
  increase of microalbuminuria vs control diet: no detectable increase
Megalin pathway [3]; [4]
  Urine CC16/creatinine: 4314 ± 540.3 µg/g
  Urine microalbumin/creatinine: 0.1 ± 0.0 mg/g
